Experimental data: US8697742B2, “BCRP/ABCG2 inhibitor” (Kabushiki Kaisha Yakult Honsha, priority 2005, dated 2014)
≈ marks a conversion by molar mass, not a printed value. Structures can show the parent of a compound that is named as a salt. Where two headings read alike, the source gives them in different places. Blank lines part the entries; values can stand above or below the compound they belong to.

Tests used:
K562/MDR cells = assay: Effect on paclitaxel (multidrug) resistance of human MDR1 gene-transduced K562 cells; type: cell-based; details: for EC50: Homo sapiens, read-out: Effect of overcoming resistance EC50
From the text: After completion of culturing, the number of viable cells was counted by use of TetraColor ONE according to the manufacture's instruction manual.

A549/SN-38-4 cells = assay: Effect of overcoming SN-38 resistance of BCRP-expressing A549/SN-38-4 cells; type: cell-based, human; details: concentration for 50% reduction of relative SN-38 resistance value (IC50 A549/SN-38-4 / IC50 A549), 48 hours culture with SN-38; for EC50: Homo sapiens, A549, 48 h, read-out: Effect of overcoming resistance EC50
Method: The human lung cancer A549 cells or the A549/SN-38-4 cells were suspended in a Ham's F-12 medium containing 10% FBS, 100 U/mL of penicillin, and 100 μg/mL of streptomycin (10% FBS/Ham's F-12), and the resultant suspension was inoculated into a 96-well microplate (2×10^3 cells/50 μL/well), followed by culturing at 5% CO2 and 37° C. overnight. […] After completion of culturing, the number of viable cells was counted by use of a viable cell counting reagent [TetraColor ONE (trademark), product of Seikagaku Corporation] according to the attached instruction manual. […] The greater the relative resistance value, the higher the level of acquired resistance.

HCT116/BCRP cells = assay: Effect of overcoming anticancer agent resistance in vivo, HCT116/BCRP tumour in nude mice; parameters: species or system human; details: day 21; for Tumor weight Mean ± S.D.: BALB/c nude mice; for Tumor growth inhibition ratio IR: vs control group
From the text: A solvent was solely administered to a control group. On the day 21 from the start of administration, a tumor was extirpated from each mice and weighed, and the tumor growth inhibition ratio IR (%) was derived from the following equation: Tumor growth inhibition ratio IR(%)=(1−average tumor weight of each administration group/average tumor weight of control group)×100.

[1] = concentration for 50% reduction of relative paclitaxel resistance value, K562/MDR vs K562, 72 hours
[2] = compound 12.5 mg/kg/day + CPT-11 10 mg/kg/day i.v. once a day for seven days
[3] = compound 25 mg/kg/day + CPT-11 10 mg/kg/day i.v. once a day for seven days

Compound: COc1ccc(/C(C#N)=C/c2ccc(N)s2)cc1OC [Compound 3, (Z)-3-(5-amino-thiophen-2-yl)-2-(3,4-dimethoxy-phenyl)-acrylonitrile]
- EC50 (K562/MDR cells; [1]): > 5 µg/mL
- EC50 (A549/SN-38-4 cells): 0.032 µg/mL (≈ 0.112 µM)

Compound: COc1ccc(/C(C#N)=C/c2ccc(N3CCCCC3)s2)cc1OC [Compound 4, (Z)-2-(3,4-dimethoxy-phenyl)-3-(5-piperidin-1-yl-thiophen-2-yl)-acrylonitrile]
- EC50 (K562/MDR cells; [1]): > 5 µg/mL
- Effect of overcoming resistance EC50 (A549/SN-38-4 cells): 12 ng/mL

Compound: COc1ccc(/C(C#N)=C/c2ccc(N3CCOCC3)s2)cc1OC [Compound 5, (Z)-2-(3,4-dimethoxy-phenyl)-3-(5-morpholin-4-yl-thiophen-2-yl)-acrylonitrile]
- EC50 (K562/MDR cells; [1]): > 5 µg/mL
- EC50 (A549/SN-38-4 cells): 0.013 µg/mL (≈ 0.0365 µM)

Compound: COc1ccc(/C(C#N)=C/c2ccc(N3CCN(C)CC3)s2)cc1OC [Compound 13, (Z)-2-(3,4-dimethoxy-phenyl)-3-[5-(4-methyl-piperazin-1-yl)-thiophen-2-yl]-acrylonitrile hydrochloride]
- Tumor weight Mean ± S.D. (HCT116/BCRP cells; [2]): 0.87 ± 0.18 g
- Tumor growth inhibition ratio IR (HCT116/BCRP cells; [2]): 31.7%
- Tumor weight Mean ± S.D. (HCT116/BCRP cells; [3]): 0.83 ± 0.08 g
- Tumor growth inhibition ratio IR (HCT116/BCRP cells; [3]): 35.0%
- Effect of overcoming resistance EC50 (A549/SN-38-4 cells; hydrochloride): 33 ng/mL

Compound: COc1ccc(/C(C#N)=C/c2ccc(N3CCN(CCO)CC3)s2)cc1OC [Compound 14, (Z)-2-(3,4-dimethoxy-phenyl)-3-{5-[4-(2-hydroxy-ethyl)-piperazin-1-yl]-thiophen-2-yl}-acrylonitrile hydrochloride]
- Tumor weight Mean ± S.D. (HCT116/BCRP cells; [2]): 0.79 ± 0.14 g
- Tumor growth inhibition ratio IR (HCT116/BCRP cells; [2]): 37.7%
- Tumor weight Mean ± S.D. (HCT116/BCRP cells; [3]): 0.70 ± 0.10 g
- Tumor growth inhibition ratio IR (HCT116/BCRP cells; [3]): 45.1%
- EC50 (K562/MDR cells; K562, 72 h): > 5 µg/mL
- Effect of overcoming resistance EC50 (A549/SN-38-4 cells; hydrochloride): 87 ng/mL

Compound: COc1ccc(/C(C#N)=C/c2ccc(N3CCC(OP(=O)([O-])[O-])CC3)s2)cc1OC.[Na+].[Na+] [Compound 17, mono-(1-{5-[(Z)-2-cyano-2-(3,4-dimethoxy-phenyl)-vinyl]-thiophen-2-yl}-piperidin-4-yl)phosphate sodium salt]
- EC50 (K562/MDR cells; [1]): > 5 µg/mL

Compound: COc1ccc(/C(C#N)=C/c2ccc(N3CCC(OC(=O)CCC(=O)O)CC3)s2)cc1OC [Compound 18, mono-(1-{5-[(Z)-2-cyano-2-(3,4-dimethoxy-phenyl)-vinyl]-thiophen-2-yl}-piperidin-4-yl)succinate]
- Effect of overcoming resistance EC50 (K562/MDR cells; [1]): >5000 ng/mL

Compound: COc1ccc(/C(C#N)=C/c2ccc([N+](=O)[O-])o2)cc1OC [Compound 19, (Z)-2-(3,4-dimethoxy-phenyl)-3-(5-nitro-furan-2-yl)-acrylonitrile]
- EC50 (K562/MDR cells; [1]): > 5 µg/mL
- EC50 (A549/SN-38-4 cells): 0.014 µg/mL (≈ 0.0466 µM)

Compound: COc1ccc(/C(C#N)=C/c2ccc(CO)o2)cc1OC [Compound 20, (Z)-2-(3,4-dimethoxy-phenyl)-3-(5-hydroxy-methyl-furan-2-yl)-acrylonitrile]
- Effect of overcoming resistance EC50 (K562/MDR cells; [1]): >5000 ng/mL
- Effect of overcoming resistance EC50 (A549/SN-38-4 cells): 490 ng/mL

Compound: COc1ccc(/C(C#N)=C/c2ccc(-c3cccc(N)c3)o2)cc1OC [Compound 23, (Z)-3-[5-(3-amino-phenyl)-furan-2-yl]-2-(3,4-dimethoxy-phenyl)-acrylonitrile hydrochloride]
- Tumor weight Mean ± S.D. (HCT116/BCRP cells; [2]): 1.21 ± 0.17 g
- Tumor growth inhibition ratio IR (HCT116/BCRP cells; [2]): 12.3%
- Tumor weight Mean ± S.D. (HCT116/BCRP cells; [3]): 0.71 ± 0.11 g
- Tumor growth inhibition ratio IR (HCT116/BCRP cells; [3]): 48.8%
- Effect of overcoming resistance EC50 (A549/SN-38-4 cells; hydrochloride): 58 ng/mL

Compound: COc1ccc(/C(C#N)=C/c2ccc(N3CCOCC3)o2)cc1OC [Compound 25, (Z)-2-(3,4-dimethoxy-phenyl)-3-(5-morpholin-4-yl-furan-2-yl)-acrylonitrile]
- EC50 (K562/MDR cells; [1]): > 5 µg/mL
- EC50 (A549/SN-38-4 cells): 0.013 µg/mL (≈ 0.0382 µM)

Compound: COc1ccc(/C(C#N)=C/c2ccc(N3CCC(O)CC3)o2)cc1OC [Compound 26, (Z)-2-(3,4-dimethoxy-phenyl)-3-[5-(4-hydroxy-piperidin-1-yl)-furan-2-yl]-acrylonitrile]
- EC50 (K562/MDR cells; [1]): > 5 µg/mL
- EC50 (A549/SN-38-4 cells): 0.075 µg/mL (≈ 0.212 µM)

Compound: (E)-2-benzothiazol-1-yl-3-(3,4-dimethoxy-phenyl)-acrylonitrile [Compound 71]
- Effect of overcoming resistance EC50 (A549/SN-38-4 cells): 13 ng/mL

Compound: (Z)-2-(3,4-dimethoxy-phenyl)-3-pyridin-4-yl-acrylonitrile N-oxide [Compound 33]
- Effect of overcoming resistance EC50 (K562/MDR cells; [1]): >5000 ng/mL
- Effect of overcoming resistance EC50 (A549/SN-38-4 cells): 520 ng/mL

Further lines, with some results ahead:

- EC50 (K562/MDR cells; [1]): > 5 µg/mL
- Effect of overcoming resistance EC50 (A549/SN-38-4 cells): 200 ng/mL
Compound: COc1ccc(/C(C#N)=C/c2ccc(N3CCN(C)CC3)o2)cc1OC [Compound 27, (Z)-2-(3,4-dimethoxy-phenyl)-3-[5-(4-methyl-piperazin-1-yl)-furan-2-yl]-acrylonitrile]

- EC50 (K562/MDR cells; [1]): > 5 µg/mL
- EC50 (A549/SN-38-4 cells): 0.12 µg/mL (≈ 0.313 µM)
Compound: COc1ccc(/C(C#N)=C/c2ccc(N3CCN(CCO)CC3)o2)cc1OC [Compound 28, (Z)-2-(3,4-dimethoxy-phenyl)-3-{5-[4-(2-hydroxy-ethyl)-piperazin-1-yl]-furan-2-yl}-acrylonitrile]

- EC50 (K562/MDR cells; [1]): > 5 µg/mL
- EC50 (A549/SN-38-4 cells): 0.02 µg/mL (≈ 0.0751 µM)
Compound: COc1ccc(/C(C#N)=C/c2ccncc2)cc1OC [Compound 30, (Z)-2-(3,4-dimethoxy-phenyl)-3-pyridin-4-yl-acrylonitrile]

- Effect of overcoming resistance EC50 (A549/SN-38-4 cells; hydrochloride): 37 ng/mL
Compound: COc1ccc(/C(C#N)=C/c2ccncc2)cc1OC [Compound 31, (Z)-2-(3,4-dimethoxy-phenyl)-3-pyridin-4-yl-acrylonitrile hydrochloride]
- Tumor weight Mean ± S.D. (HCT116/BCRP cells; [2]): 0.74 ± 0.06 g
- Tumor growth inhibition ratio IR (HCT116/BCRP cells; [2]): 46.6%
- Tumor weight Mean ± S.D. (HCT116/BCRP cells; [3]): 0.67 ± 0.18 g
- Tumor growth inhibition ratio IR (HCT116/BCRP cells; [3]): 51.1%

- EC50 (K562/MDR cells; [1]): > 5 µg/mL
- Effect of overcoming resistance EC50 (A549/SN-38-4 cells): 58 ng/mL
Compound: COc1ccc(/C(C#N)=C/c2cccnc2)cc1OC [Compound 34, (Z)-2-(3,4-dimethoxy-phenyl)-3-pyridin-3-yl-acrylonitrile]

- EC50 (K562/MDR cells; [1]): > 5 µg/mL
- EC50 (A549/SN-38-4 cells): 0.06 µg/mL (≈ 0.225 µM)
Compound: COc1ccc(/C(C#N)=C/c2ccccn2)cc1OC [Compound 38, (Z)-2-(3,4-dimethoxy-phenyl)-3-pyridin-2-yl-acrylonitrile]

- EC50 (K562/MDR cells; [1]): > 5 µg/mL
- EC50 (A549/SN-38-4 cells): 0.075 µg/mL
Compound: COc1ccc(/C(C#N)=C/c2ccc[nH]2)cc1OC.Cl [Compound 40, (Z)-2-(3,4-dimethoxy-phenyl)-3-(1H-pyrrol-2-yl)-acrylonitrile hydrochloride]

- EC50 (K562/MDR cells; [1]): > 5 µg/mL
- EC50 (A549/SN-38-4 cells): 0.22 µg/mL (≈ 0.562 µM)
Compound: COc1ccc(/C(C#N)=C/c2cnc(SC)n2Cc2ccccc2)cc1OC [Compound 42, (Z)-3-(3-benzyl-2-methylsulfanyl-3H-imidazol-4-yl)-2-(3,4-dimethoxy-phenyl)-acrylonitrile]

- EC50 (K562/MDR cells; [1]): > 5 µg/mL
- EC50 (A549/SN-38-4 cells): 0.16 µg/mL (≈ 0.441 µM)
Compound: COc1ccc(/C(C#N)=C/c2sc(-c3ccccc3)nc2C)cc1OC [Compound 43, (Z)-2-(3,4-dimethoxy-phenyl)-3-(4-methyl-2-phenyl-thiazol-5-yl)-acrylonitrile]

- EC50 (K562/MDR cells; [1]): > 5 µg/mL
- EC50 (A549/SN-38-4 cells): 0.056 µg/mL (≈ 0.21 µM)
Compound: COc1ccc(/C=C(\C#N)c2cccnc2)cc1OC [Compound 44, (Z)-3-(3,4-dimethoxy-phenyl)-2-pyridin-3-yl-acrylonitrile]

- EC50 (K562/MDR cells; [1]): > 5 µg/mL
- EC50 (A549/SN-38-4 cells): 0.05 µg/mL (≈ 0.188 µM)
Compound: COc1ccc(/C=C(\C#N)c2ccccn2)cc1OC [Compound 45, (Z)-3-(3,4-dimethoxy-phenyl)-2-pyridin-2-yl-acrylonitrile]

- Effect of overcoming resistance EC50 (A549/SN-38-4 cells; hydrochloride): 100 ng/mL
Compound: COc1ccc(/C=C(\C#N)c2cccnc2)cc1OC [Compound 46, (Z)-3-(3,4-dimethoxy-phenyl)-2-pyridin-3-yl-acrylonitrile hydrochloride]
- Tumor weight Mean ± S.D. (HCT116/BCRP cells; [2]): 0.79 ± 0.21 g
- Tumor growth inhibition ratio IR (HCT116/BCRP cells; [2]): 37.7%
- Tumor weight Mean ± S.D. (HCT116/BCRP cells; [3]): 0.67 ± 0.07 g
- Tumor growth inhibition ratio IR (HCT116/BCRP cells; [3]): 47.7%

- Effect of overcoming resistance EC50 (K562/MDR cells; [1]): >5000 ng/mL
Compound: COc1ccc(/C(C#N)=C/c2ccc(N3CCC(OP(=O)(O)O)CC3)o2)cc1OC [Compound 52, mono-(1-{5-[(Z)-2-cyano-2-(3,4-dimethoxy-phenyl)-vinyl]-furan-2-yl}-piperidin-4-yl)phosphate]

- EC50 (K562/MDR cells; [1]): > 5 µg/mL
Compound: COc1ccc(/C(C#N)=C/c2ccc(N3CCC(OP(=O)([O-])[O-])CC3)o2)cc1OC.[Na+].[Na+] [Compound 53, mono-(1-{5-[(Z)-2-cyano-2-(3,4-dimethoxy-phenyl)-vinyl]-furan-2-yl}-piperidin-4-yl)phosphate sodium salt]

- EC50 (K562/MDR cells; [1]): > 5 µg/mL
Compound: COc1ccc(/C=C(\C#N)c2cccs2)cc1OC [Compound 55, (E)-3-(3,4-dimethoxy-phenyl)-2-thiophen-2-yl-acrylonitrile]

- EC50 (K562/MDR cells; [1]): > 5 µg/mL
- EC50 (A549/SN-38-4 cells): 0.037 µg/mL (≈ 0.136 µM)
Compound: COc1ccc(/C=C(\C#N)c2ccsc2)cc1OC [Compound 56, (Z)-3-(3,4-dimethoxy-phenyl)-2-thiophen-3-yl-acrylonitrile]
